# According to US4707488A, “Dopamine-β-hydroxylase inhibitors and use thereof” (Smithkline Beckman Corporation, priority 1985, dated 1987):
# Read-outs that look alike come from different tables or passages of the source.
# Tests used:
# DBH = target: T1, DBH (Bos taurus, UniProt P15101); test: in vitro DBH inhibition, conversion of tyramine to octopamine; format: biochemical
# T1 sequence (P15101 1-610): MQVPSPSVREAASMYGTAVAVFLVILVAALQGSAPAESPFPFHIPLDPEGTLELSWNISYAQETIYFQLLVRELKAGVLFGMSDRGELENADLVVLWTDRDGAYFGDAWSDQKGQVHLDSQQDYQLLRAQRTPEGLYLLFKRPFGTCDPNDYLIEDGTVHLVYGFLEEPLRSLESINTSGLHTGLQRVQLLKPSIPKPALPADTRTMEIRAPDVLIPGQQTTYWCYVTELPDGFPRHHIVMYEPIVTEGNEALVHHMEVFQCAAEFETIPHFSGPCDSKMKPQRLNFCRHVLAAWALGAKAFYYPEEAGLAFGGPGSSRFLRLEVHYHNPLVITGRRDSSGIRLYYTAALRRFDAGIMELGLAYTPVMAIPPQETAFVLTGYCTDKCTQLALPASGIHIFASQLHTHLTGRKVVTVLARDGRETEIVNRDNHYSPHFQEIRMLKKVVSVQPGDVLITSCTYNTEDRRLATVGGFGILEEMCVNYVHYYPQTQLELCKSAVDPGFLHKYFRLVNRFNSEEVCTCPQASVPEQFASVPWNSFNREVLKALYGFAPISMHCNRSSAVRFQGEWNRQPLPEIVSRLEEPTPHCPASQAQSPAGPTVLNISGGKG
# Experimental: Compounds of the invention and other compounds useful in the method of the invention were screened for in vitro DBH inhibition by a standard procedure for assaying conversion of tyramine to octopamine in the presence of DBH. Octopamine was assayed following sodium periodate oxidation to p-hydroxybenzaldehyde by measuring spectrophotometric absorbance at 330 nm. Inhibition is given in molar concentration of compound at which DBH activity was halved (IC50). Melting points (mp) are given in °C. By this procedure fusaric acid has an IC50 of about 8×10^-7.
# [1] = mean arterial blood pressure, indwelling cannulae inserted into the tail artery; format: in vivo, Spontaneously hypertensive rats; conditions: 50 mg/kg, ip
# Experimental: (§1) Various compounds of the invention were tested for their effects in vivo on peripheral dopamine (DA) and norepinephrine (NE) levels substantially by the procedure of DaPrada and Zurcher, Life Sci., 19, 1161, (1976). Spontaneously hypertensive rats were dosed twice, the second dose being about 18 hours after the first, and were sacrificed about 2 hours after the second dose.
# Further, the same rats were dosed with a suspension or solution at a dose of 50 mg/kg of test compound i.p. and mean arterial blood pressure was determined with indwelling cannulae inserted into the tail artery.
# [2] = tested on: peripheral dopamine (DA) and norepinephrine (NE) levels; test: in vivo effects on peripheral dopamine (DA) and norepinephrine (NE) levels; set-up: species or system Spontaneously hypertensive rats; conditions: dosed twice about 18 hours apart, sacrificed about 2 hours after second dose
# Experimental: as §1
# [3] = Teresawa et al., Japan Cir. J. 35, 339 (1971); cited from earlier work
# [4] = octopamine assayed after periodate oxidation, absorbance at 330 nm, read-out: IC50 (molar concentration of compound at which DBH activity was halved)
Compound,IC50 (DBH; [4]) [µM],other results
"Sc1nnnn1Cc1ccccc1 [Example 6, 1-Benzyl-5-mercaptotetrazole]",13,reduction in mean arterial pressure [1]: significant reduction in mean arterial pressure
"Sc1nnnn1CCCc1cc(Cl)cc(Cl)c1 [Example 9, 1-(3-(3,5-Dichlorophenyl)propyl)-5-mercaptotetrazole]",0.39,
"Sc1nnnn1Cc1cc(Cl)cc(Cl)c1 [Example 2, 1-(3,5-Dichlorobenzyl)-5-mercaptotetrazole]",1,DA/NE Ratio [2]: 0.053 ± 0.0035; DA ([2]; micrograms per gram of tissue): 0.360 ± 0.015 µg/g; NE ([2]; micrograms per gram of tissue): 6.838 ± 0.257 µg/g; reduction in mean arterial pressure [1]: significant reduction in mean arterial pressure
"CCCCc1ccc(C(=O)O)nc1 [Fusaric acid, fusaric acid, reference compound]",,IC50 (DBH): ~0.8 µM; hepatotoxicity [3]: hepatotoxic
"Sc1nnnn1Cc1c(Cl)cccc1Cl [Example 3, 1-(2,6-Dichlorobenzyl)-5-mercaptotetrazole]",9.2,
"Fc1cc(F)cc(Cn2nnnc2S)c1 [Example 1, 1-(3,5-Difluorobenzyl)-5-mercaptotetrazole]",1.5,
"Oc1ccc(CCCn2nnnc2S)cc1 [Example 11, 1-(3-(4-Hydroxyphenyl)propyl)-5-mercaptotetrazole]",0.79,
"Oc1c(F)cc(CCCn2nnnc2S)cc1F [Example 12, 1-(3-(3,5-Difluoro-4-hydroxyphenyl)propyl)-5-mercaptotetrazole]",0.08,
"Fc1cc(F)cc(CCCn2nnnc2S)c1 [Example 7, 1-(3-(3,5-Difluorophenyl)propyl)-5-mercaptotetrazole]",0.35,
"COc1ccc(Cn2nnnc2S)cc1 [Example 4, 1-(4-Methoxybenzyl)-5-mercaptotetrazole]",15,
"Sc1nnnn1CCCc1ccccc1 [Example 5, 1-(3-Phenylpropyl)-5-mercaptotetrazole]",2.4,
